# pEC50: −log10 of the molar value. *1 amine or outer side, *2 acyl side, *3 side chain or, on linkers, in order; H or OH if unused. Where a SMILES comes first, the peptide text is derived from it. Bridges are numbered along the chain shown (N, C = ends). The star is where a group is joined. C20 diacid = O=C(O)CCCCCCCCCCCCCCCCCCC(=O)*; γGlu = O=C(O)[C@H](CCC(=O)[*:2])N[*:1]; Adipoyl = O=C(CCCCC(=O)[*:2])[*:1]
# Target: T1, Amylin 3(a) receptor (human calcitonin receptor (CTa) and RAMP-3) (Homo sapiens, UniProt O60896+P30988)
# T1 construct: expressed in transfected cells; host or cells: BHK570 cells, stably transfected with a CRE-luciferase reporter
# T1 sequence (O60896 24-148): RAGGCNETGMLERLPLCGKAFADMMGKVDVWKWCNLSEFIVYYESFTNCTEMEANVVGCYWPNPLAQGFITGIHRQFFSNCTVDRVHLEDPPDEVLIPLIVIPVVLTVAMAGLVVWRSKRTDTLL
# T1 sequence (P30988 25-474): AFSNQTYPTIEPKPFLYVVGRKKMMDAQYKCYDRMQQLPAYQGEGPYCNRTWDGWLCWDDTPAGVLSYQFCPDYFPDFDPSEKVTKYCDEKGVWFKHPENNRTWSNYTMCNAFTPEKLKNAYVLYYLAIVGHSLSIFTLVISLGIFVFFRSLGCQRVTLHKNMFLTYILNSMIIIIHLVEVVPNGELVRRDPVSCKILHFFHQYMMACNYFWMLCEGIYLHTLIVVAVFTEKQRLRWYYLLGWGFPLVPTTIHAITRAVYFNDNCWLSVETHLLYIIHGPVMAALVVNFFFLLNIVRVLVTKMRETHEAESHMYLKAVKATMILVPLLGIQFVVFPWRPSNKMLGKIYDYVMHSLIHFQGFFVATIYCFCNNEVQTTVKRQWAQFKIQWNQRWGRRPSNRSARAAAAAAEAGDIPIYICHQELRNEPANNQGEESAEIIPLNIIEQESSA
# Experiment: Luciferase assay (III), BHK Amylin 3(a)//CRE-luc cells
# Format: cell-based
# Conditions: BHK cells with Amylin 3(a) receptor and CRE luciferase reporter, 4 hours incubation; read-out: Potency Luciferase
# Procedure, shortened: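 Read-out is CRE-driven luciferase luminescence, taken 30 min after LucLite addition at room temperature. Compounds were incubated 4 h at 37° C in assay medium (10% FBS, 10 mM Hepes, pH 7,4). The cell line is BHK570 co-transfected with human calcitonin receptor CTa and RAMP-3, seeded overnight before use.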
row,SMILES,pEC50
1,"CC(C)C[C@H](NC(=O)[C@H](CCCNC(=N)N)NC(=O)[C@H](CCC(N)=O)NC(=O)[C@@H](NC(=O)[C@H](C)NC(=O)[C@@H]1CSSC[C@H](NC(=O)[C@H](CCC(=O)O)NC(=O)[C@H](CCCNC(=N)N)NC(=O)[C@H](CCC(=O)O)NC(=O)CC[C@H](NC(=O)CCCCCCCCCCCCCCCCCCC(=O)O)C(=O)O)C(=O)N[C@@H](CC(N)=O)C(=O)N[C@@H]([C@@H](C)O)C(=O)N[C@@H](C)C(=O)N[C@@H]([C@@H](C)O)C(=O)N1)[C@@H](C)O)C(=O)N[C@@H](C)C(=O)N[C@@H](CC(N)=O)C(=O)N[C@@H](Cc1ccccc1)C(=O)N[C@@H](CC(C)C)C(=O)N[C@@H](CCCNC(=N)N)C(=O)N[C@@H](Cc1c[nH]cn1)C(=O)N[C@@H](CO)C(=O)N[C@@H](CO)C(=O)N[C@@H](CC(N)=O)C(=O)N[C@@H](CC(N)=O)C(=O)N[C@@H](Cc1ccccc1)C(=O)NCC(=O)N[C@@H](C)C(=O)N1CCC[C@H]1C(=O)N[C@@H](CC(C)C)C(=O)N[C@@H](CO)C(=O)N[C@@H](CO)C(=O)N[C@H](C(=O)N[C@@H](CC(N)=O)C(=O)N[C@H](C(=O)NCC(=O)N[C@@H](CO)C(=O)N[C@@H](CC(N)=O)C(=O)N[C@H](C(=O)N[C@@H](Cc1ccc(O)cc1)C(N)=O)[C@@H](C)O)C(C)C)[C@@H](C)O [Example 46, N-alpha-[(S)-4-Carboxy-4-(19-carboxynonadecanoylamino)butyryl]-Glu-Arg-[Glu1,Arg17,Ala25,Pro26,Ser28,Ser29]-pramlintide] ({C20 diacid-γGlu}-ERECNTATCATQRLANFLRHSSNNFGAPLSSTNVGSNTY-NH2; disulfide 4-9)",9.70
2,"CC[C@H](C)[C@H](NC(=O)[C@@H]1CCCN1C(=O)CNC(=O)[C@H](Cc1ccccc1)NC(=O)[C@H](CC(N)=O)NC(=O)[C@H](CC(N)=O)NC(=O)[C@H](CO)NC(=O)[C@H](CO)NC(=O)[C@H](Cc1c[nH]cn1)NC(=O)[C@H](Cc1c[nH]cn1)NC(=O)[C@H](CC(C)C)NC(=O)[C@H](Cc1ccccc1)NC(=O)[C@H](CC(N)=O)NC(=O)[C@H](C)NC(=O)[C@H](CC(C)C)NC(=O)[C@H](CCCNC(=N)N)NC(=O)[C@H](CCC(N)=O)NC(=O)[C@@H](NC(=O)[C@H](C)NC(=O)[C@@H]1CSSC[C@H](NC(=O)[C@H](Cc2c[nH]cn2)NC(=O)[C@H](Cc2c[nH]cn2)NC(=O)[C@H](Cc2c[nH]cn2)NC(=O)CC[C@H](NC(=O)CCCCC(=O)O)C(=O)O)C(=O)N[C@@H](CC(N)=O)C(=O)N[C@@H]([C@@H](C)O)C(=O)N[C@@H](C)C(=O)N[C@@H]([C@@H](C)O)C(=O)N1)[C@@H](C)O)C(=O)N[C@@H](CC(C)C)C(=O)N1CCC[C@H]1C(=O)N1CCC[C@H]1C(=O)N[C@H](C(=O)N[C@@H](CC(N)=O)C(=O)N[C@H](C(=O)NCC(=O)N[C@@H](CO)C(=O)N[C@@H](CC(N)=O)C(=O)N[C@H](C(=O)N[C@@H](Cc1ccc(O)cc1)C(N)=O)[C@@H](C)O)C(C)C)[C@@H](C)O [Example 61, N-alpha-[(S)-4-Carboxy-4-(5-carboxypentanoylamino)butyryl]-His-His-[His1,His17]-pramlintide] ({Adipoyl-γGlu}-HHHCNTATCATQRLANFLHHSSNNFGPILPPTNVGSNTY-NH2; disulfide 4-9)",10.40
3,"CC[C@H](C)[C@H](NC(=O)[C@@H]1CCCN1C(=O)CNC(=O)[C@H](Cc1ccccc1)NC(=O)[C@H](CC(N)=O)NC(=O)[C@H](CC(N)=O)NC(=O)[C@H](CO)NC(=O)[C@H](CO)NC(=O)[C@H](Cc1c[nH]cn1)NC(=O)[C@H](Cc1c[nH]cn1)NC(=O)[C@H](CC(C)C)NC(=O)[C@H](Cc1ccccc1)NC(=O)[C@H](CC(N)=O)NC(=O)[C@H](C)NC(=O)[C@H](CC(C)C)NC(=O)[C@H](CCCNC(=N)N)NC(=O)[C@H](CCC(N)=O)NC(=O)[C@@H](NC(=O)[C@H](C)NC(=O)[C@@H]1CSSC[C@H](NC(=O)[C@H](CCCCN)NC(=O)[C@H](CCCNC(=N)N)NC(=O)[C@H](CCCCN)NC(=O)[C@H](CCC(=O)O)NC(=O)CCCCCCCCCCCCCCCCCCC(=O)O)C(=O)N[C@@H](CC(N)=O)C(=O)N[C@@H]([C@@H](C)O)C(=O)N[C@@H](C)C(=O)N[C@@H]([C@@H](C)O)C(=O)N1)[C@@H](C)O)C(=O)N[C@@H](CC(C)C)C(=O)N1CCC[C@H]1C(=O)N1CCC[C@H]1C(=O)N[C@H](C(=O)N[C@@H](CC(N)=O)C(=O)N[C@H](C(=O)NCC(=O)N[C@@H](CO)C(=O)N[C@@H](CC(N)=O)C(=O)N[C@H](C(=O)N[C@@H](Cc1ccc(O)cc1)C(N)=O)[C@@H](C)O)C(C)C)[C@@H](C)O [Example 9, N-alpha-[19-carboxynonadecanoyl]-Glu-Lys-Arg-[His17]-pramlintide] ({C20 diacid}-EKRKCNTATCATQRLANFLHHSSNNFGPILPPTNVGSNTY-NH2; disulfide 5-10)",10.22
4,"CC[C@H](C)[C@H](NC(=O)[C@@H]1CCCN1C(=O)CNC(=O)[C@H](Cc1ccccc1)NC(=O)[C@H](CC(N)=O)NC(=O)[C@H](CC(N)=O)NC(=O)[C@H](CO)NC(=O)[C@H](CO)NC(=O)[C@H](Cc1c[nH]cn1)NC(=O)CNC(=O)[C@H](CC(C)C)NC(=O)[C@H](Cc1ccccc1)NC(=O)[C@H](CC(N)=O)NC(=O)[C@H](C)NC(=O)[C@H](CC(C)C)NC(=O)[C@H](CCCNC(=N)N)NC(=O)[C@H](CCC(N)=O)NC(=O)[C@@H](NC(=O)[C@H](C)NC(=O)[C@@H]1CSSC[C@H](NC(=O)CC[C@H](NC(=O)CCCCCCCCCCCCCCCCCCC(=O)O)C(=O)O)C(=O)N[C@@H](CC(N)=O)C(=O)N[C@@H]([C@@H](C)O)C(=O)N[C@@H](C)C(=O)N[C@@H]([C@@H](C)O)C(=O)N1)[C@@H](C)O)C(=O)N[C@@H](CC(C)C)C(=O)N1CCC[C@H]1C(=O)N1CCC[C@H]1C(=O)N[C@H](C(=O)N[C@@H](CC(N)=O)C(=O)N[C@H](C(=O)NCC(=O)N[C@@H](CO)C(=O)N[C@@H](CC(N)=O)C(=O)N[C@H](C(=O)N[C@@H](Cc1ccc(O)cc1)C(N)=O)[C@@H](C)O)C(C)C)[C@@H](C)O [Example 13, N-alpha-[(S)-4-Carboxy-4-(19-carboxynonadecanoylamino)butyryl]-[Gly17]-pramlintide (2-37)] ({C20 diacid-γGlu}-CNTATCATQRLANFLGHSSNNFGPILPPTNVGSNTY-NH2; disulfide 1-6)",9.40
5,"CC[C@H](C)[C@H](NC(=O)[C@@H]1CCCN1C(=O)[C@H](CCC(=O)O)NC(=O)[C@H](Cc1ccccc1)NC(=O)[C@H](CC(N)=O)NC(=O)[C@H](CC(N)=O)NC(=O)[C@H](CO)NC(=O)[C@H](CO)NC(=O)[C@H](Cc1c[nH]cn1)NC(=O)[C@H](Cc1c[nH]cn1)NC(=O)[C@H](CC(C)C)NC(=O)[C@H](Cc1ccccc1)NC(=O)[C@H](CC(N)=O)NC(=O)[C@H](C)NC(=O)[C@H](CC(C)C)NC(=O)[C@H](CCCNC(=N)N)NC(=O)[C@H](CCC(N)=O)NC(=O)[C@@H](NC(=O)[C@H](C)NC(=O)[C@@H]1CSSC[C@H](NC(=O)CC[C@H](NC(=O)CCCCCCCCCCCCCCCCCCC(=O)O)C(=O)O)C(=O)N[C@@H](CC(N)=O)C(=O)N[C@@H]([C@@H](C)O)C(=O)N[C@@H](C)C(=O)N[C@@H]([C@@H](C)O)C(=O)N1)[C@@H](C)O)C(=O)N[C@@H](CC(C)C)C(=O)N1CCC[C@H]1C(=O)N1CCC[C@H]1C(=O)N[C@H](C(=O)N[C@@H](CC(N)=O)C(=O)N[C@H](C(=O)NCC(=O)N[C@@H](CO)C(=O)N[C@@H](CC(N)=O)C(=O)N[C@H](C(=O)N[C@@H](Cc1ccc(O)cc1)C(N)=O)[C@@H](C)O)C(C)C)[C@@H](C)O [Example 44, N-alpha-[(S)-4-Carboxy-4-(19-carboxynonadecanoylamino)butyryl]-[His17,Glu24]-pramlintide (2-37)] ({C20 diacid-γGlu}-CNTATCATQRLANFLHHSSNNFEPILPPTNVGSNTY-NH2; disulfide 1-6)",10.00
6,"CC[C@H](C)[C@H](NC(=O)[C@@H]1CCCN1C(=O)CNC(=O)[C@H](Cc1ccccc1)NC(=O)[C@H](CC(N)=O)NC(=O)[C@H](CC(N)=O)NC(=O)[C@H](CO)NC(=O)[C@H](CO)NC(=O)[C@H](Cc1c[nH]cn1)NC(=O)[C@H](CCCNC(=N)N)NC(=O)[C@H](CC(C)C)NC(=O)[C@H](Cc1ccccc1)NC(=O)[C@H](CC(N)=O)NC(=O)[C@H](C)NC(=O)[C@H](CC(C)C)NC(=O)[C@H](CCCNC(=N)N)NC(=O)[C@H](CCC(N)=O)NC(=O)[C@@H](NC(=O)[C@H](C)NC(=O)[C@@H]1CSSC[C@H](NC(=O)[C@H](Cc2c[nH]cn2)NC(=O)CC[C@H](NC(=O)CCCCCCCCCCCCCCCCCCC(=O)O)C(=O)O)C(=O)N[C@@H](CC(N)=O)C(=O)N[C@@H]([C@@H](C)O)C(=O)N[C@@H](C)C(=O)N[C@@H]([C@@H](C)O)C(=O)N1)[C@@H](C)O)C(=O)N[C@@H](CC(C)C)C(=O)N1CCC[C@H]1C(=O)N1CCC[C@H]1C(=O)N[C@H](C(=O)N[C@@H](CC(N)=O)C(=O)N[C@H](C(=O)NCC(=O)N[C@@H](CO)C(=O)N[C@@H](CC(N)=O)C(=O)N[C@H](C(=O)N[C@@H](Cc1ccc(O)cc1)C(N)=O)[C@@H](C)O)C(C)C)[C@@H](C)O [Example 36, N-alpha-[(S)-4-Carboxy-4-(19-carboxynonadecanoylamino)butyryl]-[His1,Arg17]-pramlintide] ({C20 diacid-γGlu}-HCNTATCATQRLANFLRHSSNNFGPILPPTNVGSNTY-NH2; disulfide 2-7)",10.00

# Source: US8895504B2, “Amylin derivatives” (priority 2008, dated 2014)
